Here are results for 22 compounds from patent US20110077237A1, “KINASE INHIBITORS” (VERTEX PHARMACEUTICALS INCORPORATED, priority 2007, published 2011).

Assay type in all cases: biochemical
The target in experiment [1] is T1, PKC theta (Homo sapiens, UniProt Q04759). As to the kind of experiment: PKC Theta II 33P radiometric kinase assay. The conditions noted are these: 0.5 nM PKC theta, 240 μM ATP, [γ-33P] ATP, 25° C., compound range 0-0.25 μM. As for the experimental part: An assay buffer solution was prepared which consisted of 100 mM HEPES (pH 7.5), 10 mM MgCl2, 25 mM NaCl, 0.1 mM EDTA and 0.01% Brij. An enzyme buffer containing reagents to final assay concentrations of 0.002% Triton X-100, 200 μg/mL Phosphatidylserine, 20 μg/mL Diacylglycerol, 2 mM DTT, 150 μM substrate peptide ([…]) and 0.5 nM PKC theta kinase was prepared in assay buffer. To 22 μL of this enzyme buffer, in a 96 well plate, was added 2 μL of VRT stock solution in DMSO. The mixture was allowed to equilibrate for 10 mins at 25° C. […] ATP.
T1 sequence (Q04759 whole entry): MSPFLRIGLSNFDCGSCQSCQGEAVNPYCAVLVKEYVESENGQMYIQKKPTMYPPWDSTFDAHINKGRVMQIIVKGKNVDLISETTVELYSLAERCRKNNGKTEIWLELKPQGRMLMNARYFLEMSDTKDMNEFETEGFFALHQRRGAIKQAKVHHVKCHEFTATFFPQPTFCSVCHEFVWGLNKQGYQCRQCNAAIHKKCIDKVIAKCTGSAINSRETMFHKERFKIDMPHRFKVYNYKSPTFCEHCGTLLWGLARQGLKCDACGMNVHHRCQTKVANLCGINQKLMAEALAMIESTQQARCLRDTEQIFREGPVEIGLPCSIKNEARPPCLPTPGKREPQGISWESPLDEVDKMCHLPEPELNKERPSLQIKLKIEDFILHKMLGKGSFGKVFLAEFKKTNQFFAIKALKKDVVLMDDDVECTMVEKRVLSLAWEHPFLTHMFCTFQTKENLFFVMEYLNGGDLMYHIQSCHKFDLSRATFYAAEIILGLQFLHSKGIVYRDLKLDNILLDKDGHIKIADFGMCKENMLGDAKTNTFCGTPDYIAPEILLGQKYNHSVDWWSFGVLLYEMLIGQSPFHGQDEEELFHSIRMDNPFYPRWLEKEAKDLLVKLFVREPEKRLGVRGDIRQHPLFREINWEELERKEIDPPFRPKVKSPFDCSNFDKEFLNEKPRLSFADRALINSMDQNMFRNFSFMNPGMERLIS
The reaction was stopped after 60 minutes by the addition of 100 μL 100 mM phosphoric acid. A phosphocellulose 96 well plate (Millipore, Cat no. MAPHNOB) was washed with […] 100 mM phosphoric acid prior to the addition of the reaction mixture (120 μL) and was left to soak for at least 30 minutes, prior to wash steps (4×200 μL 100 mM phosphoric acid). After drying, 100 μL Optiphase ‘SuperMix’ liquid scintillation cocktail (Perkin Elmer) was added to the well prior to scintillation counting (1450 Microbeta Liquid Scintillation Counter, Wallac).
For each Ki determination, 11 data points covering the VRT concentration range of 0-0.25 μM were obtained in duplicate (DMSO stocks were prepared from an initial 10 mM VRT stock with subsequent 1:2 serial dilutions). Ki values were calculated from initial rate data by non-linear regression using the Prism software package (Prism 4.0a, Graphpad Software, San Diego, Calif.).

The next experiment addresses PKC delta kinase (Homo sapiens, UniProt Q05655). The experiment is described as follows: PKC Delta coupled-enzyme kinase assay. The conditions noted are these: 46 nM PKC delta, 150 μM ATP, 30° C.; read-out: Ki PKC delta. A digest of the protocol:
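Assay buffer was 100 mM HEPES pH 7.5, 10 mM MgCl2, 25 mM NaCl, 0.1 mM EDTA, 0.01% Brij. Enzyme buffer was equilibrated with compound in DMSO for 10 min at 30 °C. Ki values were derived by non-linear regression of initial rate data.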

A further experiment concerns the target PKC alpha kinase (Homo sapiens, UniProt P17252). As to the kind of experiment: PKC Alpha coupled-enzyme kinase assay. To be noted: 4.5 nM PKC alpha, 130 μM ATP, 30° C. A digest of the protocol: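 Coupled-enzyme assay in HEPES pH 7.5 with MgCl2, CaCl2, EDTA and Brij; enzyme preincubated with compound 10 min at 30 °C, reaction started with ATP (final 130 μM).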

For experiment [2], the target named is T1, PKC theta. The experiment is described as follows: PKC Theta III assay, similar to PKC theta I with fluorescence read out. The conditions noted are these: fluorescence read out rather than UV. As for the experimental part: An assay buffer solution was prepared which consisted of 100 mM HEPES (pH 7.5), 10 mM MgCl2, 25 mM NaCl, 0.1 mM EDTA and 0.01% Brij. […] To 60 μL of this enzyme buffer, in a 384 well plate, was added 2 μL of VRT stock solution in DMSO. The mixture was allowed to equilibrate for 10 mins at 30° C. The enzyme reaction was initiated by the addition of 5 μL stock ATP solution prepared in assay buffer to a final assay concentration of 240 μM. Initial rate data was determined from the rate of change of absorbance at 340 nm (corresponding to stoichiometric consumption of NADH) using a Molecular Devices Spectramax plate reader (Sunnyvale, Calif.) over 15 mins at 30° C. For each Ki determination 12 data points covering the VRT concentration range of 0-20 μM were obtained in duplicate (DMSO stocks were prepared from an initial 10 mM VRT stock with subsequent 1:2 serial dilutions). Ki values were calculated from initial rate data by non-linear regression using the Prism software package (Prism 4.0a, Graphpad Software, San Diego, Calif.).
Compounds tested in an assay similar to PKC theta I above with a fluorescence read out rather than a UV read out gave the following results: D compounds are (2-aminopyridin-3-yl)(6-(1-benzylpiperidin-4-ylamino)pyridin-2-yl)methanone, and (2-aminopyridin-3-yl)(6-(2,3-dihydroxypropylamino)pyridin-2-yl)methanone (naming by ChemDraw Ultre version 10.0).

For experiment [3], the target named is T1, PKC theta. The experiment is described as follows: PKC Theta I coupled-enzyme (NADH absorbance) kinase assay. The conditions noted are these: 18 nM PKC theta, 240 μM ATP, 30° C., absorbance at 340 nm. As for the experimental part: An assay buffer solution was prepared which consisted of 100 mM HEPES (pH 7.5), 10 mM MgCl2, 25 mM NaCl, 0.1 mM EDTA and 0.01% Brij. […] To 60 μL of this enzyme buffer, in a 384 well plate, was added 2 μL of VRT stock solution in DMSO. The mixture was allowed to equilibrate for 10 mins at 30° C. […] Ki values were calculated from initial rate data by non-linear regression using the Prism software package (Prism 4.0a, Graphpad Software, San Diego, Calif.).

Chain of PKC delta kinase (Q05655 whole entry): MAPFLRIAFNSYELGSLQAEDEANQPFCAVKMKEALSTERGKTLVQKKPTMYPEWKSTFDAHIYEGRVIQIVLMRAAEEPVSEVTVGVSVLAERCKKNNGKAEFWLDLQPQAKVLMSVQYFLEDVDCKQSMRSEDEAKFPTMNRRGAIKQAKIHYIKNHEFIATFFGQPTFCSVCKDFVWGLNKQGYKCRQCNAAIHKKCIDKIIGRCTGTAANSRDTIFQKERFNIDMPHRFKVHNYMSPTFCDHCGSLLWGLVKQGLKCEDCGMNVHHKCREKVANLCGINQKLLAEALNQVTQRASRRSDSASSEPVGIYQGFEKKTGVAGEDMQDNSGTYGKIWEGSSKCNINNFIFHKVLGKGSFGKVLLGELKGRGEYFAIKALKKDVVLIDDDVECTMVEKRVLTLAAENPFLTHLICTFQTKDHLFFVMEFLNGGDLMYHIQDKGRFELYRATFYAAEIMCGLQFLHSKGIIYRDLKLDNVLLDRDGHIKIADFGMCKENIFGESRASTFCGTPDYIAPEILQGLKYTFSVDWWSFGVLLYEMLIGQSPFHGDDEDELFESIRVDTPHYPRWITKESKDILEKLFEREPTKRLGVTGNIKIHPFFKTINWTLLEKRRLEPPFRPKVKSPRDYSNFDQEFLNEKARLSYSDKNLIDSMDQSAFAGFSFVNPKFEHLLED

As for `Nc1ncc(Br)cc1C(=O)c1cccc(N2CCCNCC2)n1` [compound 14, (6-(1,4-diazepan-1-yl)pyridin-2-yl)(2-amino-5-bromopyridin-3-yl)methanone], the Ki at PKC theta [1] is below 50 nM; at PKC delta kinase, 50 to 500 nM; on PKC alpha kinase it was below 50 nM.

`C#Cc1ccc(N2CCN[C@@H](CC(C)C)C2)nc1C(=O)c1cccnc1N` [compound 357] gave a Ki at PKC theta [1] of 50 to 500 nM.

In the case of `Nc1ncc(-c2c[nH]c3ccccc23)cc1C(=O)c1cccc(N2CCCNCC2)n1` [compound 179], the figures for the Ki on PKC theta [1] and at PKC alpha kinase were 50 to 500 nM and below 50 nM, respectively.

Take `CC(C)C[C@H]1CN(c2cccc(C(=O)c3cccnc3N)n2)CCN1` [compound 193]: on PKC theta [1], the Ki fell in the range of 50 to 500 nM.

On to `Nc1ncc(-c2c[nH]c3ccccc23)cc1C(=O)c1cncc(N2CCCNCC2)n1` [compound 213], for which the Ki on PKC theta [1] is 50 to 500 nM.

In the case of `Nc1ncc(-c2ccccc2)cc1C(=O)c1cccc(N2CCCNCC2)n1` [compound 45], the Ki was below 50 nM at PKC theta [1], 50 to 500 nM at PKC delta kinase and below 50 nM on PKC alpha kinase.

On PKC theta [2], `Nc1ncccc1C(=O)c1cccc(NC2CCN(Cc3ccccc3)CC2)n1` [(2-aminopyridin-3-yl)(6-(1-benzylpiperidin-4-ylamino)pyridin-2-yl)methanone] gave a Ki above 2800 nM.

On to `C=Cc1cnc(N)c(C(=O)c2cccc(N3CCCN(C(=O)CC(F)(F)F)CC3)n2)c1` [compound 107, 1-(4-(6-(2-amino-5-vinylnicotinoyl)pyridin-2-yl)-1,4-diazepan-1-yl)-3,3,3-trifluoropropan-1-one], for which the figures for the Ki at PKC theta [1] and at PKC delta kinase were below 50 nM and 50 to 500 nM, respectively.

Regarding `CN1CCCN(c2cccc(C(=O)c3cc(Br)cnc3N)n2)CC1` [compound 67], the Ki was below 50 nM at PKC theta [1] and 50 to 500 nM at PKC delta kinase.

For the compound `Nc1ncc(Br)cc1C(=O)c1cccc(N2CCCN(C(=O)CC(F)(F)F)CC2)n1` [compound 75, 1-(4-(6-(2-amino-5-bromonicotinoyl)pyridin-2-yl)-1,4-diazepan-1-yl)-3,3,3-trifluoropropan-1-one], the Ki at PKC theta [1] was below 50 nM; on PKC delta kinase it was 50 to 500 nM.

With `C=Cc1cnc(N)c(C(=O)c2cccc(N3CCCNCC3)n2)c1` [compound 66], the results for the Ki on PKC theta [1], on PKC delta kinase and on PKC alpha kinase were 50 to 500 nM, 50 to 500 nM and below 50 nM, respectively.

`Nc1ncccc1C(=O)c1cccc(NCC(O)CO)n1` (stereo not shown) [(2-aminopyridin-3-yl)(6-(2,3-dihydroxypropylamino)pyridin-2-yl)methanone] gave a Ki at PKC theta [2] above 2800 nM.

In the case of `Cn1cc(-c2cnc(N)c(C(=O)c3cccc(N4CCCNCC4)n3)c2)c2ccccc21` [compound 210], the Ki was 50 to 500 nM on PKC theta [1] and below 50 nM on PKC alpha kinase.

Regarding `CC1CNCCN1c1cccc(C(=O)c2cccnc2N)n1` (stereo not shown) [compound 191], the Ki at PKC theta [1] lay in the range of 50 to 500 nM.

In turn, `C=Cc1ccc(N2CCN[C@@H](CC(C)C)C2)nc1C(=O)c1cccnc1N` [compound 346] showed a Ki at PKC theta [1] of 50 to 500 nM.

Consider `C/C=C/c1ccc(N2CCN[C@@H](CC(C)C)C2)nc1C(=O)c1cccnc1N` [compound 361], for which the Ki at PKC theta [1] lay within 50 to 500 nM.

Turning to `CC#Cc1ccc(N2CCN[C@@H](CC(C)C)C2)nc1C(=O)c1cccnc1N` [compound 402], the results for the Ki at PKC theta [1] and at PKC alpha kinase were 50 to 500 nM and below 50 nM, respectively.

Regarding `C=Cc1cnc(N)c(C(=O)c2cccc(N3CCC(N)CC3)n2)c1` [compound 164], on PKC theta [1], the Ki is 50 to 500 nM.

`Cc1cc(N)n(-c2ccc(C(F)(F)F)c(C(=O)c3cccnc3N)n2)n1` [compound 394]: the Ki on PKC theta [3], on PKC delta kinase and on PKC alpha kinase was 500 to 2800 nM throughout.

`NCCCCNc1ccc(C(F)(F)F)c(C(=O)c2cccnc2N)n1` [compound 374]: the Ki at PKC theta [3], at PKC delta kinase and at PKC alpha kinase was 500 to 2800 nM in each case.

Regarding `Nc1ncccc1C(=O)c1cccc(N2CCNC(c3cccc(Cl)c3)C2)n1` (stereo not shown) [compound 301], the Ki at PKC theta [1] is 50 to 500 nM.

Take `CC(C)[C@H](CN)Nc1ccc(C(F)(F)F)c(C(=O)c2cccnc2N)n1` [compound 370]: the Ki on PKC theta [3], on PKC delta kinase and at PKC alpha kinase was 500 to 2800 nM throughout.
